In US20240217928A1, “HALOACETHYDRAZIDES USEFUL AS AEP INHIBITORS” (Hoffmann-La Roche Inc., priority 2021, published 2024):
Read-outs that look alike come from different tables or passages of the source. Each block holds one molecule with its values, some of them ahead of it.

Target: T1, rhlegumain (hLGMN(V18-Y433)_VD-8xHis-S2-r) (Homo sapiens, UniProt Q99538)
T1 construct: construct name: hLGMN(V18-Y433)_VD-8xHis-S2-r; VD linker (C); 8xHis (C); made in house
T1 sequence (Q99538 26-323 limits assumed): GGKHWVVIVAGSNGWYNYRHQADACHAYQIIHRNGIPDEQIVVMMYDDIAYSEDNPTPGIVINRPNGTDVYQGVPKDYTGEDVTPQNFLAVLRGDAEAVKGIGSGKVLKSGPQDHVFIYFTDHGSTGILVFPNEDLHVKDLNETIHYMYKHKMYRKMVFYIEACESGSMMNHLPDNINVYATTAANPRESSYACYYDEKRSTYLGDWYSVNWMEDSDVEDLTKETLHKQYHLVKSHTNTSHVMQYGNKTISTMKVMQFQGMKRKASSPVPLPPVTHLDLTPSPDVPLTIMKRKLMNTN
Assay: AEP activity enzymatic assay
Type: biochemical
Method: Prior to the assay measurements, rhlegumain (in house, construct name: hLGMN(V18-Y433)_VD-8xHis-S2-r) is activated by diluting it from 1.1 mg/ml to 0.1 mg/ml (11-fold) in activation buffer (50 mM sodium acetate, 100 mM NaCl, pH 4.0) and incubation at 37° C. for 2 h. The activated enzyme solution stock is stored at −80° C.

[1] = 0.5 nM legumain, 0.5 uM Z-Ala-Ala-Asn-Rh110-(D-Pro), pH 5.8, 30 min preincubation at 25° C., read-out: IC50 (AEP)

Structure (SMILES): NC(=O)CN(NC(=O)[C@@H]1CCCN1C(=O)C1(c2ccc(Cl)cc2)CCC1)C(=O)CF [Example 4, 2-[(2-Fluoroacetyl)-[[(2S)-1-[1-(4-Chlorophenyl)Cyclobutanecarbonyl]Pyrrolidine-2-Carbonyl]Amino]Amino]Acetamide]
IC50: 1.3 nM

Structure (SMILES): NC(=O)CN(NC(=O)[C@@H]1CCCN1S(=O)(=O)c1ccccc1)C(=O)CF [Example 7, 2-[(2-Fluoroacetyl)-[[(2S)-1-(Benzenesulfonyl)Pyrrolidine-2-Carbonyl]Amino]Amino]Acetamide]
IC50: 61.7 nM

Structure (SMILES): NC(=O)CN(NC(=O)[C@@H]1CCCN1C(=O)Cc1ccccc1)C(=O)CF [Example 5, 2-[(2-Fluoroacetyl)-[[(2S)-1-(2-Phenylacetyl)Pyrrolidine-2-Carbonyl]Amino]Amino]Acetamide]
IC50: 22.2 nM

Structure (SMILES): NC(=O)CN(NC(=O)[C@@H]1CCCN1C(=O)CCc1ccccc1)C(=O)CF [Example 2, 2-[(2-Fluoroacetyl)-[[(2S)-1-(3-Phenylpropanoyl)Pyrrolidine-2-Carbonyl]Amino]Amino]Acetamide]
IC50: 72.9 nM

Structure (SMILES): NC(=O)CN(NC(=O)[C@@H]1CCCN1C(=O)C1(c2ccc(Cl)cc2)CC1)C(=O)CF [Example 6, 2-[(2-Fluoroacetyl)-[[(2S)-1-[1-(4-Chlorophenyl)Cyclopropanecarbonyl]Pyrrolidine-2-Carbonyl]Amino]Amino]Acetamide]
IC50: 2.7 nM

Structure (SMILES): C#CCOc1ccc(C2(C(=O)N3CCC[C@H]3C(=O)NN(CC(N)=O)C(=O)CF)CC2)cc1 [Example 14, 2-[(2-Fluoroacetyl)-[[(2S)-1-[1-(4-Prop-2-Ynoxyphenyl)Cyclopropanecarbonyl]Pyrrolidine-2-Carbonyl]Amino]Amino]Acetamide]
IC50: 1.4 nM

Structure (SMILES): COc1ccc(-c2ccc(S(=O)(=O)N3CCC[C@H]3C(=O)NN(CC(N)=O)C(=O)CF)cc2)cc1 [Example 13, 2-[(2-Fluoroacetyl)-[[(2S)-1-[4-(4-Methoxyphenyl)Phenyl]Sulfonylpyrrolidine-2-Carbonyl]Amino]Amino]Acetamide]
IC50 [1]: 1.5 nM

IC50 [1]: 0.3 nM
Structure (SMILES): COc1ccc(-c2ccc(S(=O)(=O)N3CCC[C@H]3C(=O)NN(CC(N)=O)C(=O)CCl)cc2)cc1 [Example 17, 2-[(2-Chloroacetyl)-[[(2S)-1-[4-(4-Methoxyphenyl)Phenyl]Sulfonylpyrrolidine-2-Carbonyl]Amino]Amino]Acetamide]

Structure (SMILES): NC(=O)CN(NC(=O)[C@@H]1CCCN1S(=O)(=O)Cc1ccccc1)C(=O)CF [Example 9, 2-[(2-Fluoroacetyl)-[[(2S)-1-Benzylsulfonylpyrrolidine-2-Carbonyl]Amino]Amino]Acetamide]
IC50: 83.6 nM

Structure (SMILES): NC(=O)CN(NC(=O)[C@@H]1CCCN1C(=O)C1(c2ccccc2)CC1)C(=O)CF [Example 8, 2-[(2-Fluoroacetyl)-[[(2S)-1-(1-Phenylcyclopropanecarbonyl)Pyrrolidine-2-Carbonyl]Amino]Amino]Acetamide]
IC50: 5 nM

Structure (SMILES): NC(=O)CN(NC(=O)[C@@H]1CCCN1C(=O)C1(c2ccccc2)CCC1)C(=O)CF [Example 3]
IC50: 3.6 nM

Structure (SMILES): NC(=O)CN(NC(=O)[C@@H]1CCCN1S(=O)(=O)CCc1ccccc1)C(=O)CF [Example 10, 2-[(2-Fluoroacetyl)-[[(2S)-1-(2-Phenylethylsulfonyl)Pyrrolidine-2-Carbonyl]Amino]Amino]Acetamide]
IC50: 33.8 nM

Structure (SMILES): C#Cc1ccc(C2(C(=O)N3CCC[C@H]3C(=O)NN(CC(N)=O)C(=O)CF)CC2)cc1 [Example 11, 2-[(2-Fluoroacetyl)-[[(2S)-1-[1-(4-Ethynylphenyl)Cyclopropanecarbonyl]Pyrrolidine-2-Carbonyl]Amino]Amino]Acetamide]
IC50: 1.2 nM

Structure (SMILES): NC(=O)CN(NC(=O)[C@@H]1CCCN1C(=O)C(F)(F)c1ccccc1)C(=O)CF [Example 1, 2-[(2-Fluoroacetyl)-[[(2S)-1-(2,2-Difluoro-2-Phenyl-Acetyl)Pyrrolidine-2-Carbonyl]Amino]Amino]Acetamide]
IC50: 3.6 nM
